Where two headings read alike, the source gives them in different places. Each block holds one compound with its values, some of them ahead of it.
Experiments:
[1] = target: T1, TRIM71 E3 ubiquitin-protein ligase TRIM71 (Homo sapiens, UniProt Q2Q1W2); test: Cysteine liganding, probe competition; format: binding
T1 construct: Cells were resuspended in cold PBS on ice and sonicated with a probe sonicator to achieve lysis; endogenous in cells
T1 sequence (Q2Q1W2 1-868): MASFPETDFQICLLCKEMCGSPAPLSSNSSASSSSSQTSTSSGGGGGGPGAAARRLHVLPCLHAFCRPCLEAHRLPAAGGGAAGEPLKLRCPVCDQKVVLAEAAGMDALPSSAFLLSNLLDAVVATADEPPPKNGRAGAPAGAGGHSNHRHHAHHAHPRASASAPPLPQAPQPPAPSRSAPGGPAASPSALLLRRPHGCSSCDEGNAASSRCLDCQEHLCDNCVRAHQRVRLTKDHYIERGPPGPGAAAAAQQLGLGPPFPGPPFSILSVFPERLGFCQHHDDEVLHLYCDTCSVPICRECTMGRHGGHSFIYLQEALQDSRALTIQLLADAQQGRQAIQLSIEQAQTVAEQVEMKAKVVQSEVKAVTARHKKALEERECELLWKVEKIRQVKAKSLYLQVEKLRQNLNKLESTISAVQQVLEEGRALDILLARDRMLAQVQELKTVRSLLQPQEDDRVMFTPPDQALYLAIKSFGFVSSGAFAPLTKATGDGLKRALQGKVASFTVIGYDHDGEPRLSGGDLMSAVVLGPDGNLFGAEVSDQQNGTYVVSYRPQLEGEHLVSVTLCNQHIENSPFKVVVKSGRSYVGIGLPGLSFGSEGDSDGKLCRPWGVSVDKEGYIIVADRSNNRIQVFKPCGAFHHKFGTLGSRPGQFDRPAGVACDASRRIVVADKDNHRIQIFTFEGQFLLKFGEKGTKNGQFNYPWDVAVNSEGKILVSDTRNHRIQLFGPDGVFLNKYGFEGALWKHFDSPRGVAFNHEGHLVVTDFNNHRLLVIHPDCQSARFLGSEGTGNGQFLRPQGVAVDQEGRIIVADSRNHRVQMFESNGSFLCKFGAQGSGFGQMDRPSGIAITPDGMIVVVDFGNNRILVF
Description: (§1) Cells were resuspended in cold PBS on ice and sonicated with a probe sonicator to achieve lysis. 200 μL of lysate containing 5 mg/ml proteome was treated with 2 μL of 100× compound stock in a 2-mL deep-well plate. The treated lysate was subsequently incubate at 25° C. for 1 hr with shaking at 600 rpm. The treated lysate was further incubated with 2 μL of 10 mM desthiobiotin iodoacetamide probe at 25° C. for 1 hr with shaking at 600 rpm. Next, the lysate was further treat with 20 μL of solution of PBS containing 11 mM MgSO4 and 2.5% Turbonuclease stock and incubated at 25° C. for 20 minutes with shaking at 600 rpm. 1.7 mL ice-cold acetone was added to each well and incubated at −20° C. for 2 hr, followed by max speed (4200 rpm) spin for 45 min. Acetone was then decanted and the plates were blotted to remove acetone. The plates were then dried in open air for 20 minutes. After drying, the plates were then covered with foil seal and stored at −80° C. overnight.
(§2) The next day, samples were re-suspended in 90 μL of solution of 9M urea, 50 mM ammonium bicarbonate and 10 mM DTT by incubating at 65C for 20 min with shaking at 1500 rpm. Next, samples were cooled to 37° C. and then 10 μL of 500 mM iodoacetamide solution (92.48 mg/ml) was added. The samples were then incubated at 37° C. for 30 min with shaking at 600 rpm.
(§3) ZEBA desalting plates were equilibrated 4 times using 250 μL of 2M urea, 50 mM ammonium bicarbonate solution followed by centrifugation at 1500 rpm for 2 minutes. After equilibration was complete, samples were applied to ZEBA desalting plate and spin at 1500 rpm for 2 min on top of 1 mL 96-well deep-well collection plate to buffer exchange samples. 4 μL of solution containing 25 mM CaCl2 and 0.25 mg/mL trypsin was added to the plate and the plate was then incubated at 37° C. for 2 hrs with shaking at 600 rpm. 300 μL of solution containing 5% high-capacity streptavidin agarose slurry in 25 mM Tris-HCl pH 7.5, 150 mM NaCl, and 0.1% NP-40 then added. The plate was incubated at 25° C. for 2 hrs with shaking at 600 rpm. Samples were transferred to 25 μm filter plate and spin at 1000 rpm for 2 min. Samples were then washed 3 times with 0.75 mL of wash buffer (25 mM Tris-HCl pH 7.5, 150 mM NaCl, and 0.1% NP-40) followed by washing 3 times with 0.75 mL PBS, and then 4 times with 0.75 mL water. After the washing step, samples were eluted into polypropylene 96-well plate by addition of 250 µL of 50% MeCN/water, 0.1% formic acid and allowed to gravity drip for 10 min, followed by centrifugation at 1000 rpm for 2 min. Speedvac was used to dry the plates at about 45° C. for […]. Then the plates were covered with foil seal and stored at −20° C.
(§4) Samples were resuspended by addition of 20 μl of 12.5% ACN, 0.1% formic acid solution, covered with foil seal, and incubated at 42° C. for 10 minutes with shaking at 600 rpm. Then add 30 μL of 0.1% formic acid solution was added and the plate was covered and incubated at 42° C. for 10 minutes with shaking at 600 rpm. Seal plate was then sealed with a 96-well silicon mat for analysis.

[2] = target: T2, PCGF2 Polycomb group RING finger protein 2 (Homo sapiens, UniProt P35227); test: Cysteine liganding, probe competition; format: binding
T2 construct: Cells were resuspended in cold PBS on ice and sonicated with a probe sonicator to achieve lysis; endogenous in cells
T2 sequence (P35227 1-344): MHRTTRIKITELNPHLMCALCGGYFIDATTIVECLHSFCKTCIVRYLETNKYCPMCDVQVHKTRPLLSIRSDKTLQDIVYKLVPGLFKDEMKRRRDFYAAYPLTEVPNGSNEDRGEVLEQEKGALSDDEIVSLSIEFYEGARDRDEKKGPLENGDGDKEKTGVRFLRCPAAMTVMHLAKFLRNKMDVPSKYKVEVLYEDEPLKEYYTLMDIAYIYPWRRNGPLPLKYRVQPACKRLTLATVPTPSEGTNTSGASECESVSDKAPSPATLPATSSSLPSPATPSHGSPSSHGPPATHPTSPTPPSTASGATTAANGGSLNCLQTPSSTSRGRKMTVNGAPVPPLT
Description: as §1, §2, §3, §4

inhibition at 100 µM ([1]; 100 uM, UniProt Q2Q1W2, read-out: KB05_100 uM_percent_inhibition): 5%
KB05_100 uM_percent_inhibition ([2]; UniProt P35227, 100 uM): 29%
inhibition at 100 µM ([2]; UniProt P35227, 100 uM, read-out: KB05_100 uM_percent_inhibition): 28%
SMILES: C=CC(=O)N(c1ccccc1)c1ccc(Br)cc1 [KB05]

SMILES: COc1ccc2c(c1)CCCN2C(=O)CCl [KB02]
inhibition at 100 µM ([1]; 100 uM, UniProt Q2Q1W2, read-out: KB02_100 uM_percent_inhibition): 39%
Liganded ([1]; TRIM71 Res# 636, uniprot Q2Q1W2): YES
Liganded ([2]; PCGF2 Res# 233, uniprot P35227): YES

SMILES: O=C(CCl)Nc1cc(C(F)(F)F)cc(C(F)(F)F)c1 [KBO3]
KB03_100 uM_percent_inhibition ([1]; 100 uM, UniProt Q2Q1W2): 17%
100 Max ([1]; uniprot Q2Q1W2): 17.2
100 ave ([1]; uniprot Q2Q1W2): 17.2
500 Max ([1]; uniprot Q2Q1W2): 64.2
500 ave ([1]; uniprot Q2Q1W2): 64.2
KB03_100 uM_percent_inhibition ([2]; UniProt P35227, 100 uM): 37%
100 ave ([2]; uniprot P35227): −4.4
500 ave ([2]; uniprot P35227): 35.9
100 Max ([2]; uniprot P35227, unit assumed): 5.9%
500 Max ([2]; uniprot P35227, unit assumed): 49.9%
